Reference: patent US11091478B2 (Fochon Pharmaceuticals, Ltd., priority 2017, dated 2021)

The compounds below were run on DOHH2 cells (assay: Cell proliferation assay (MTS), DOHH2 cells, 120 h). Details: not given.
Format: cell-based
Text: Cell Proliferation Assays
MTS testing kit was purchased from Promega. The RPMI-1640, Fetal bovine serum and Penicillin-Streptomycin were purchased from Gibco. Dimethyl sulfoxide (DMSO) was purchased from Sigma.
To investigate whether a compound is able to inhibit the activity of BCL-2 in cells, a mechanism-based assay using DOHH2 (DSMZ No.® ACC 47) and RS4;11 (ATCC® CRL-1873™) cell was developed. In this assay, inhibition of Bcl-2 was detected by the inhibition of DOHH2 cells proliferation. DOHH2 cells were cultured in culture flasks to 40-80% confluence in RPMI-1640 plus 10% fetal bovine serum. Cells were collected and plated onto 96-well plates at desired cell density (5000 cells/well). Plates were incubated overnight at 37° C., with 5% CO2 to adhere. Compounds were added to the plates, and the final compound concentrations were 10000, 3333, 1111, […], 124, 41, 14, 4.6 and 1.5 nM. Plates plated with DOHH2 or RS4;11 cells were placed at 37° C., with 5% CO2 for 120 h (DOHH2) or 72 h (RS4;11) respectively. 20 μl MTS/100 μl medium mixture solution were added to each well and incubate the plates for exactly 2 hours. The reaction was stopped by adding 25 μl 10% SDS per well. Measure absorbance at 490 nm and 650 nm (reference wavelength). IC50 was calculated using GraphPad Prism 5.0.
Select compounds prepared as described above were assayed according to the biological procedures described herein.

Structure (SMILES) | IC50 [nM]
CC1(C)CCC(CN2CCN(c3ccc(C(=O)NS(=O)(=O)c4cc5c(c([N+](=O)[O-])c4)N[C@@H](C4CCC(O)CC4)CO5)c(Oc4cnc5[nH]ccc5c4)c3)CC2)=C(c2ccc(Cl)cc2)C1 (stereo partly drawn) [Example 2-245B, (S)-2-((1H-pyrrolo[2,3-b]pyridin-5-yl)oxy)-4-(4-((4′-chloro-5,5-dimethyl-3,4,5,6-tetra-hydro-[1,1′-biphenyl]-2-yl)methyl)piperazin-1-yl)-N-((3-(4-hydroxycyclohexyl)-5-nitro-3,4-dihydro-2H-benzo[b][1,4]oxazin-7-yl)sulfonyl)benzamide] | 1

Same assay, conditions: Homo sapiens, DOHH-2, 120 h

Structure (SMILES) | IC50 [nM]
CC1(C)CCC(CN2CCN(c3ccc(C(=O)NS(=O)(=O)c4cc5c(c([N+](=O)[O-])c4)N[C@@H](Cc4ccccn4)CO5)c(-n4ncc5nc6[nH]ccc6cc54)c3)CC2)=C(c2ccc(Cl)cc2)C1 [Example 6-3, (S)-4-(4-((4′-chloro-5,5-dimethyl-3,4,5,6-tetrahydro-[1,1′-biphenyl]-2-yl)methyl)piperazin-1-yl)-N-((5-nitro-3-(pyridin-2-ylmethyl)-3,4-dihydro-2H-benzo[b][1,4]oxazin-7-yl)sulfonyl)-2-(pyrazolo[4,3-b]pyrrolo[3,2-e]pyridin-1(5H)-yl)benzamide] | 185
CC1(C)CCC(CN2CCN(c3ccc(C(=O)NS(=O)(=O)c4cc5c(c([N+](=O)[O-])c4)N[C@H](CNS(C)(=O)=O)CO5)c(Oc4cnc5[nH]ccc5c4)c3)CC2)=C(c2ccc(Cl)cc2)C1 [Example 2-136, (R)-2-((1H-pyrrolo[2,3-b]pyridin-5-yl)oxy)-4-(4-((4′-chloro-5,5-dimethyl-3.4.5.6-tetra-hydro-[1,1′-biphenyl]-2-yl)methyl)piperazin-1-yl)-N-((3-(methylsulfonamidomethyl)-5-nitro-3,4-dihydro-2H-benzo[b][1,4]oxa-zin-7-yl)sulfonyl)benzamide] | 378
CC1(C)CCC(CN2CCN(c3ccc(C(=O)NS(=O)(=O)c4cc5c(c([N+](=O)[O-])c4)N[C@@H](CCOC(=O)N4CCOCC4)CO5)c(Oc4cnc5[nH]ccc5c4)c3)CC2)=C(c2ccc(Cl)cc2)C1 [Example 2-135, (S)-2-(7-(N-(2-((1H-pyrrolo[2,3-b]pyridin-5-yl)oxy)-4-(4-((4′-chloro-5,5-dimethyl-3,4,5,6-tetrahydro-[1,1′-biphenyl]-2-yl)methyl)piperazin-1-yl)benzoyl)sulfamoyl)-5-nitro-3,4-dihydro-2H-benzo[b][1,4]oxazin-3-yl) ethyl morpholine-4-carboxylate] | 186
CC1(C)CCC(CN2CCN(c3ccc(C(=O)NS(=O)(=O)c4cc5c(c([N+](=O)[O-])c4)N[C@@H](Cc4ccccc4Cl)CO5)c(Oc4cnc5[nH]ccc5c4)c3)CC2)=C(c2ccc(Cl)cc2)C1 [Example 2-191, (S)-2-((1H-pyrrolo[2,3-b]pyridin-5-yl)oxy)-4-(4-((4′-chloro-5,5-dimethyl-3,4,5,6-tetra-hydro-[1,1′-biphenyl]-2-yl)methyl)piperazin-1-yl)-N-((3-(2-chlorobenzyl)-5-nitro-3,4-dihydro-2H-benzo[b][1,4]oxazin-7-yl)sulfo-nyl)benzamide] | 153
CCS(=O)(=O)NC[C@@H]1COc2cc(S(=O)(=O)NC(=O)c3ccc(N4CCN(CC5=C(c6ccc(Cl)cc6)CC(C)(C)CC5)CC4)cc3Oc3cnc4[nH]ccc4c3)cc([N+](=O)[O-])c2N1 [Example 2-137, (R)-2-((1H-pyrrolo[2,3-b]pyridin-5-yl)oxy)-4-(4-((4′-chloro-5,5-dimethyl-3,4,5,6-tetra-hydro-[1,1′-biphenyl]-2-yl)methyl)piperazin-1-yl)-N-((3-(ethylsulfonamidomethyl)-5-nitro-3,4-dihydro-2H-benzo[b][1,4]oxazin-7-yl)sulfonyl)benzamide] | 139
CC1(C)CCC(CN2CCN(c3ccc(C(=O)NS(=O)(=O)c4cc5c(c([N+](=O)[O-])c4)N[C@H](c4ccc(Cl)cc4)CO5)c(Oc4cnc5[nH]ccc5c4)c3)CC2)=C(c2ccc(Cl)cc2)C1 [Example 2-167, (R)-2-((1H-pyrrolo[2,3-b]pyridin-5-yl)oxy)-4-(4-((4′-chloro-5,5-dimethyl-3,4,5,6-tetra-hydro-[1,1′-biphenyl]-2-yl)methyl)piperazin-1-yl)-N-((3-(4-chlorophenyl)-5-nitro-3,4-dihydro-2H-benzo[b][1,4]oxazin-7-yl)sulfo-nyl)benzamide] | 29
CC1(C)CCC(CN2CCN(c3ccc(C(=O)NS(=O)(=O)c4cc([N+](=O)[O-])c5nc(CN6CCOCC6)[nH]c5c4)c(Oc4cnc5[nH]ccc5c4)c3)CC2)=C(c2ccc(Cl)cc2)C1 [Example 1-27, 2-((1H-pyrrolo[2,3-b]pyridin-5-yl)oxy)-4-(4-((4′-chloro-5,5-dimethyl-3,4,5,6-tetrahydro-[1,1′-biphenyl]-2-yl)methyl)piperazin-1-yl)-N-((2-(morpholinomethyl)-4-nitro-1H-benzo[d]imidazol-6-yl)sulfonyl)benzamide] | 51
CC1(C)CCC(CN2CCN(c3ccc(C(=O)NS(=O)(=O)c4cc5c(c([N+](=O)[O-])c4)N[C@@H](c4ccc(Cl)cn4)CO5)c(Oc4cnc5[nH]ccc5c4)c3)CC2)=C(c2ccc(Cl)cc2)C1 [Example 2-198B, (S)-2-((1H-pyrrolo[2,3-b]pyridin-5-yl)oxy)-4-(4-((4′-chloro-5,5-dimethyl-3,4,5,6-tetra-hydro-[1,1′-biphenyl]-2-yl)methyl)piperazin-1-yl)-N-((3-(5-chloropyridin-2-yl)-5-nitro-3,4-dihydro-2H-benzo[b][1,4]oxazin-7-yl)sulfonyl)benzamide] | 444
C[C@H]1COCCN1C[C@H]1COc2cc(S(=O)(=O)NC(=O)c3ccc(N4CCN(CC5=C(c6ccc(Cl)cc6)CC(C)(C)CC5)CC4)cc3Oc3cnc4[nH]ccc4c3)cc([N+](=O)[O-])c2N1 [Example 2-85, 2-((1H-pyrrolo[2,3-b]pyridin-5-yl)oxy)-4-(4-((4′-chloro-5,5-dimethyl-3,4,5,6-tetra-hydro-[1,1′-biphenyl]-2-yl)methyl)piperazin-1-yl)-N-(((S)-3-(((S)-3-methylmorpholino)meth-yl)-5-nitro-3,4-dihydro-2H-benzo[b][1,4]oxazin-7-yl)sulfonyl)benzamide] | 434
CC1(C)CCC(CN2CCN(c3ccc(C(=O)NS(=O)(=O)c4cc5c(c([N+](=O)[O-])c4)N[C@@H](Cc4ccc(Cl)cc4)CO5)c(Oc4cnc5[nH]ccc5c4)c3)CC2)=C(c2ccc(Cl)cc2)C1 [Example 2-207, (S)-2-((1H-pyrrolo[2,3-b]pyridin-5-yl)oxy)-4-(4-((4′-chloro-5,5-dimethyl-3,4,5,6-tetra-hydro-[1,1′-phenyl]-2-yl)methyl)piperazin-1-yl)-N-((3-(4-chlorobenzyl)-5-nitro-3,4-dihydro-2H-benzo[b][1,4]oxazin-7-yl)sulfo-nyl)benzamide] | 402
CC1(C)CCC(CN2CCN(c3ccc(C(=O)NS(=O)(=O)c4cc5c(c([N+](=O)[O-])c4)N[C@H](CC4CCC(C)(O)CC4)CO5)c(Oc4cnc5[nH]ccc5c4)c3)CC2)=C(c2ccc(Cl)cc2)C1 (stereo partly drawn) [Example 2-219, (R)-2-((1H-pyrrolo[2,3-b]pyridin-5-yl)oxy)-4-(4-((4′-chloro-5,5-dimethyl-3,4,5,6-tetra-hydro-[1,1′-biphenyl]-2-yl)methyl)piperazin-1-yl)-N-((3-((4-hydroxy-4-methylcyclo-hexyl)methyl)-5-nitro-3,4-dihydro-2H-benzo [b][1,4]oxazin-7-yl)sulfonyl)benzamide] | 662
CC1(C)CCC(CN2CCN(c3ccc(C(=O)NS(=O)(=O)c4cc5c(c([N+](=O)[O-])c4)N[C@H](c4ccccc4)CO5)c(Oc4cnc5[nH]ccc5c4)c3)CC2)=C(c2ccc(Cl)cc2)C1 [Example 2-165, (R)-2-((1H-pyrrolo[2,3-b]pyridin-5-yl)oxy)-4-(4-((4′-chloro-5,5-dimethyl-3,4,5,6-tetra-hydro-[1,1′-biphenyl]-2-yl)methyl)piperazin-1-yl)-N-((5-nitro-3-phenyl-3,4-dihydro-2H-benzo[b][1,4]oxazin-7-yl)sulfonyl)benza-mide] | 77
CC1(C)CCC(CN2CCN(c3ccc(C(=O)NS(=O)(=O)c4cc5c(c([N+](=O)[O-])c4)N[C@@H](c4ccccc4)CO5)c(Oc4cnc5[nH]ccc5c4)c3)CC2)=C(c2ccc(Cl)cc2)C1 [Example 2-172, (S)-2-((1H-pyrrolo[2,3-b]pyridin-5-yl)oxy)-4-(4-((4′-chloro-5,5-dimethyl-3,4,5,6-tetra-hydro[1,1′-biphenyl]-2-yl)methyl)piperazin-1-yl)-N-((5-nitro-3-phenyl-3,4-dihydro-2H-benzo[b][1,4]oxazin-7-yl)sulfonyl)benza-mide] | 14
CC1(C)CCC(CN2CCN(c3ccc(C(=O)NS(=O)(=O)c4cc5c(c([N+](=O)[O-])c4)N[C@@H](c4ccc(Cl)cc4)CO5)c(Oc4cnc5[nH]ccc5c4)c3)CC2)=C(c2ccc(Cl)cc2)C1 [Example 2-174, (S)-2-((1H-pyrrolo[2,3-b]pyridin-5-yl)oxy)-4-(4-((4′-chloro-5,5-dimethyl-3,4,5,6-tetra-hydro-[1,1′-biphenyl]-2-yl)methyl)piperazin-1-yl)-N-((3-(4-chlorophenyl)-5-nitro-3,4-dihydro-2H-benzo[b][1,4]oxazin-7-yl)sulfo-nyl)benzamide] | 23
